# Experiments:
# [1] = Kinetic solubility assay (shake flask, HPLC-UV); format: physicochemical; conditions: aqueous buffer, kinetic from dmso stock, 50 mM pH 7.4 phosphate buffer, room temperature
# Description: Kinetic Solubility Assay: The Kinetic solubility assay employed the shake flask method followed by HPLC-UV analysis. The following step-wise procedure is used: • 1) Weigh and dissolve the samples in 100% DMSO as the stock solution of 10 mM. About 10 μL (compound/Media) of stock solution is needed in this assay. • 2) Add the test compounds and controls (10 mM in DMSO, 10 μL/vial) into the 50 mM pH 7.4 phosphate buffer (490 μL/well) placed in a Mini-Uniprep filter. • 3) Vortex the samples of kinetic solubility for 2 minutes. • 4) Incubate and shake the solubility solutions on an orbital shaker with 800 rpm at room temperature for 24 hours. • 5) Centrifuge at 4000 rpm, 20° C. for 10 minutes. • 6) Transfer 400 μL (with or without dilution) of each solubility supernatant into 96-deep well for analysis after the samples will be directly filtered by the syringeless filter device. • 7) Determine the test compound concentration of the filtrate using HPLC-UV. • 8) Inject at least 5 UV standard solutions into HPLC from low to high concentration subsequently and then test the Kinetic solubility supernatant in duplicate. • 9) Use the QC samples to monitor Kinetic solubility determination process.
# [2] = Log D assay (1-octanol/buffer shake flask, LC/MS/MS); format: physicochemical; conditions: 1-octanol/phosphate buffer; 1-octanol / 0.1 M phosphate buffer pH 7.4
# Source text: Log D: The Log D assay is a miniaturized 1-octanol/buffer shake flask method followed by LC/MS/MS analysis. It is typically measured by determining the partition of a compound between an organic solvent (1-octanol) and an aqueous buffer (0.1 M phosphate buffer, pH 7.4; Varied buffer pH can be set). Since log D is pH dependent, the pH of the aqueous phase is always specified and is commonly measured at pH 7.4, the physiological pH of body fluids. […] Correct the peak areas by dilution factors and embedded internal standard, and the ratio of the corrected peak areas will be used to calculate the results (Log D value). • 8) Use the QC samples to monitor the process Log D determination. • 9) Data Analysis: The Log D value for each compound is calculated by the following equation: […]
solubility kinetic at 24 h [1] [µM],logD at 1 h [2],SMILES
< 1.6,3,"Cn1nc(C(F)(F)F)cc1C(=O)NC(C)(C)c1cc(-c2ccnc(C(F)(F)F)c2)nn1C [Compound 1063, 1-methyl-N-(2-(1-methyl-3-(2-(trifluoromethyl)pyridin-4-yl)-1H-pyrazol-5-yl)propan-2-yl)-3-(trifluoromethyl)-1H-pyrazole-5-carboxamide]"
< 1.6,4.4,"Cn1nc(C(F)(F)F)cc1C(=O)NC1(c2cc(-c3ccnc(C(F)(F)F)c3)nn2C)CCC1 [Compound 1064, 1-methyl-N-(1-(1-methyl-3-(2-(trifluoromethyl)pyridin-4-yl)-1H-pyrazol-5-yl)cyclobutyl)-3-(trifluoromethyl)-1H-pyrazole-5-carboxamide]"

# — patent US20250346576A1, “KCNT1 INHIBITORS COMPRISING A PYRAZOLE CORE AND METHODS OF USE” (PRAXIS PRECISION MEDICINES, INC., priority 2022, published 2025)
